Experimental findings from article PMC3210175, “8-Modified-2′-Deoxyadenosine Analogues Induce Delayed Polymerization Arrest during HIV-1 Reverse Transcription” (PLoS ONE, 2011) are described below.

“Also recorded” adds a separate entry of the source. Where two headings read alike, the source gives them in different places.

In data set [1] the target is T1, HIV-1 RT (Human immunodeficiency virus type 1 group M subtype B, UniProt P04585, E1065Q).
T1 construct: helix αH in the thumb domain of the p66 subunit of HIV-1 RT; made in house
The experiment in a line: (+) strand DNA synthesis assay (DCT in 31-mer DNA template, 18-mer DNA primer). As to conditions: analogue in 31-mer DNA template; RT 10 or 30 nM. It counts as biochemical. The source says:
(§1) Viral RNA, comprising the first 311 nucleotides of the HIV-1 genomic RNA (Mal isolate) was in vitro transcribed and purified as previously described. 18-, 19 and 31-mer DNA oligodeoxynucleotides containing the modified 2′-dA analogues respectively at 3′ end, at the penultimate position of 3′ end and at a distance of 12 nucleotides from their 5′ end were chemically synthesized and purified as described above (Figure 5). Unmodified and modified 18- and 19-mer primers were labelled at their 5′ end with [γ-^32]ATP using phage T4 polynucleotide kinase and purified on 8% denaturing polyacrylamide gels. RNase H (−) reverse transcriptase bearing the E478Q mutation that abolishes RNase H activity (RT^EQ) was expressed and purified according to a method adapted from.
(§2) Primer/template (P/T) complexes, at a final concentration of 300 nM, were formed by incubating the primer with a 3 fold excess of either 1–311 viral RNA or modified 31-mer DNA oligonucleotide in water for 2 min at 90°C, cooling on ice for 2 min and incubating for 20 min at 50°C in 100 mM NaCl.
Thirty one-mer DNA templates, containing or not a modified 2′-deoxyadenosine were hybridized to an 18-mer DNA primer (Figure 5) and subsequent DNA synthesis and analysis of the reaction products were performed as described above.

Data set [2] concerns HIV-1 LAI in CEM-SS cells. Description: HIV-1 inhibition in cell culture (RT activity in cell culture supernatants). As to conditions: mean ± SD, four independent experiments. The data set is classed as cell-based. The protocol: (§3) We thus addressed the antiviral activity of our nucleoside analogues in cell culture. All the synthesized nucleoside analogues (2a–g, 3, 7, 8 and 9) were tested for their ability to reduce HIV-1 LAI in CEM-SS cells. Viral replication was monitored by measuring the RT activity in the cell culture supernatants, while compound's cytotoxicity on uninfected cells was assessed using an MTT assay.
(§4) The activity of the nucleoside analogues 2a–g, 3, 7, 8 and 9 on HIV-1 replication was determined by measuring the RT activity associated with virus particles released from CEM-SS cells infected with HIV-1 Lai. The 50% cytotoxic concentration (CC50) was evaluated in parallel to the 50% inhibitory concentration (IC50)[37].

Data set [3] is described as follows: Cytotoxicity on uninfected cells, MTT assay. The data set is classed as cell-based. Particulars: human, uninfected CEM-SS cells, mean ± SD, four independent experiments. The protocol:
as §3, §4
Background: Tetrazolium dyes change colour on reduction, which living cells bring about.

For data set [4], the target named is T1, HIV-1 RT. The experiment in a line: (−) strand "n+6" DNA synthesis assay (ddATP instead of dATP; DCT-modified 18- or 19-mer primer on 1–311 HIV-1 MAL RNA template). The data set is classed as biochemical. Particulars: for Delayed chain termination (accumulation of n+3 products): DCT at penultimate position of 19-mer primer, both 10 and 30 nM RT; for Inhibition of (−) strand DNA synthesis (DCT in the primer), DCT at 3′-end 18 mer: "n+6" DNA synthesis assay, analogue incorporated at 3′ end of 18-mer DNA primer.
From the text: as §1, §2
Ten nM P/T (with the 311 vRNA as template) were pre-incubated with 10 or 30 nM of RT at 37°C for 4 min. Reactions were initiated by the addition of 50 µM of each of the four dNTPs and stopped at various times with equal amounts of buffer containing formamide. The same procedure was used for synthesis of “+6” DNA except that ddATP was substituted for dATP. Reaction products were denatured for 2 min at 90°C prior to separation on an 8% polyacrylamide denaturing gel and quantified using a Fuji FLA-5100 analyser and the Image Gauge program.

Data set [5] has as its target T1, HIV-1 RT. The experiment in a line: DNA-directed DNA synthesis with modified 19-mer primer on 41-mer DNA template (Figure S2). Particulars: 8-MeS-dAMP at penultimate position of 19-mer primer, 10 or 90 nM RT. The data set is classed as biochemical. From the text:
Supplementary file pone.0027456.s002.docx: Figure S2 Comparative effect of 8-MeS-dA on (−) and (+) strand DNA synthesis. A. Templates and primers used for the study. The template is either 1–311 HIV-1 MAL RNA, for which part of the sequence is shown, or a 41-mer DNA oligonucleotide. The primer is a 19- mer DNA strictly complementary to the central part of the template. X corresponds to either dAMP or 8-MeS-dAMP inserted at the penultimate position of the primer. “n” corresponds to the position of the modified nucleotide. B. Time course of in vitro DNA synthesis using 10 nM of primer/template complexes preincubated with either 10 or 90 nM of HIV-1 RT. Polymerization was initiated by the addition of 20 µM of dTTP, dGTP and dCTP as well as 50 µM of ddATP for the RNA-directed synthesis or 20 µM of dATP, dTTP, dCTP and 50 µM of ddGTP for the DNA directed synthesis. Reactions were stopped after 15, 60 and 120 min. (+6) and (+7) refer to the 6th and 7th nucleotides to be added with respect to the position of the modified nucleotide analogue. (DOCX) Click here for additional data file.

In data set [6] the target is T1, HIV-1 RT. The experiment in a line: (−) strand strong-stop DNA synthesis assay (DCT-modified 19-mer DNA primer on 1–311 HIV-1 MAL RNA template). It counts as biochemical. Particulars: 10 nM RT, full-length product.
From the text: as §1, §2
Ten nM P/T (with the 311 vRNA as template) were pre-incubated with 10 or 30 nM of RT at 37°C for 4 min. […] Reaction products were denatured for 2 min at 90°C prior to separation on an 8% polyacrylamide denaturing gel and quantified using a Fuji FLA-5100 analyser and the Image Gauge program.

Data set [7] has as its system CEM-SS cells. The experiment in a line: Cytotoxicity on uninfected cells, MTT assay. It counts as cell-based. Particulars: mean ± SD, four independent experiments. The protocol: as §3, §4
The mark [8] stands for this setting: Human immunodeficiency virus 1, CEM-SS, read-out: EC50.

The term EC50 denotes the concentration at which the effect is half-maximal. The CC50 is the concentration at which the toxic effect on the cells reaches its halfway point. Read a low CC50 as harm at low concentration. For `C=Cc1nc2c(N)ncnc2n1[C@H]1C[C@H](O)[C@@H](CO)O1` [compound 8, 8-Vinyl-2′-deoxyadenosine], the “Effect on primer extension pattern / enzyme pausing in (+) strand DNA synthesis” value in data set [1] was “enzyme pausing is obvious at positions n+1 and mainly n+2”. The concentration for a half-maximal effect (EC50) in data set [2] (setting [8]) was above 100 µM. The 50% cytotoxic concentration (CC50) in data set [3] was above 100 µM.
On to `CSc1nc2c(N)ncnc2n1[C@H]1C[C@H](O)[C@@H](CO)O1` [compound 3, 8-Methylthio-2′-deoxyadenosine], for which, in data set [4], the “Delayed chain termination (accumulation of n+3 products)” value is “clearly induced a delayed chain termination”. Also, the “Effect on primer extension pattern / enzyme pausing in (+) strand DNA synthesis” value in data set [1] was “enzyme pausing is obvious at positions n+1 and mainly n+2”. Also, the EC50 in data set [2] (setting [8]) is above 100 µM. This molecule also returned a cytotoxic concentration (CC50) in data set [3] above 100 µM. Besides, in data set [5], the “Delayed chain termination with DNA rather than RNA as template” value was “did not act as a delayed chain terminator”.
Regarding `CC(C)CNc1nc2c(N)ncnc2n1[C@H]1C[C@H](O)[C@@H](CO)O1` [2g, 8-iButyl-amino-2'-deoxyadenosine], in data set [6], the “Inhibition of (−) strand DNA synthesis (DCT in the primer), DCT at penultimate position 19 mer” value is “same pattern as the unmodified primer”. Moreover, the “Delayed chain termination (accumulation of n+3 products)” value in data set [4] was “did not impact”. Moreover, in data set [1], the “Effect on primer extension pattern / enzyme pausing in (+) strand DNA synthesis” value is given as “does not affect this pattern”. Further, the 50% effective concentration (EC50) in data set [2] (setting [8]) is above 100 µM. The same molecule gave a half-maximal cytotoxic concentration (CC50) in data set [3] above 100 µM.
For `CN(C)c1nc2c(N)ncnc2n1[C@H]1C[C@H](O)[C@@H](CO)O1` [2a, 8-Dimethylamino-2'-deoxyadenosine], the EC50 in data set [2] (setting [8]) is above 100 µM. In data set [3], this molecule had a CC50 above 100 µM.
As for `CC(C)Nc1nc2c(N)ncnc2n1[C@H]1C[C@H](O)[C@@H](CO)O1` [2f, 8-iPropyl-amino-2'-deoxyadenosine], the “Delayed chain termination (accumulation of n+3 products)” value in data set [4] is listed as “clearly induced a delayed chain termination”. Moreover, the “Effect on primer extension pattern / enzyme pausing in (+) strand DNA synthesis” value in data set [1] is “enzyme pausing is obvious at positions n+1 and mainly n+2”. The EC50 in data set [2] (setting [8]) is 14 µM; in data set [2] (listed as 8-iPr-N-dA), “moderate anti-HIV-1 activity”; in data set [2] (read-out: EC50) it was 14.2 ± 1.9 µM. Further, the half-maximal cytotoxic concentration (CC50) in data set [3] came out at 81 µM; in data set [7], 81.3 ± 6.1 µM.
Take `Nc1ncnc2c1nc(N1CCCC1)n2[C@H]1C[C@H](O)[C@@H](CO)O1` [2d, 8-Pyrrolidin-2'-deoxyadenosine]: in data set [2] (setting [8]), the EC50 was above 100 µM. The 50% cytotoxic concentration (CC50) in data set [3] is above 100 µM.
With `CCN(C)c1nc2c(N)ncnc2n1[C@H]1C[C@H](O)[C@@H](CO)O1` [2b, 8-Ethylmethylamino-2'-deoxyadenosine], the “Inhibition of (−) strand DNA synthesis (DCT in the primer), DCT at 3′-end 18 mer” value in data set [4] (10 nM RT) and in data set [4] (30 nM RT) was “immediate chain terminator; also recorded: termination” throughout. In data set [4], the “Delayed chain termination (accumulation of n+3 products)” value is “clearly induced a delayed chain termination”. The “Effect on primer extension pattern / enzyme pausing in (+) strand DNA synthesis” value in data set [1] is “enzyme pausing is obvious at positions n+1 and mainly n+2”. The concentration giving a half-maximal response (EC50) in data set [2] (setting [8]) is above 100 µM. The molecule also came in with a CC50 in data set [3] above 100 µM.
For the molecule `Nc1ncnc2c1nc(N1CCCCC1)n2[C@H]1C[C@H](O)[C@@H](CO)O1` [2e, 8-Piperidin-2'-deoxyadenosine], the EC50 in data set [2] (setting [8]) is above 100 µM. The molecule further returned a CC50 in data set [3] above 100 µM.
As to `NC(=O)c1nc2c(N)ncnc2n1[C@H]1C[C@H](O)[C@@H](CO)O1` [compound 7, 8-Carbamoyl-2′-deoxyadenosine], the concentration for a half-maximal effect (EC50) in data set [2] (setting [8]) is above 100 µM. In data set [3], this molecule came in with a 50% cytotoxic concentration (CC50) above 100 µM.
In the case of `CCN(CC)c1nc2c(N)ncnc2n1[C@H]1C[C@H](O)[C@@H](CO)O1` [2c, 8-Diethylamino-2'-deoxyadenosine], the 50% effective concentration (EC50) in data set [2] (setting [8]) is above 100 µM. Further, the 50% cytotoxic concentration (CC50) in data set [3] was above 100 µM.
For `CCc1nc2c(N)ncnc2n1[C@H]1C[C@H](O)[C@@H](CO)O1` [compound 9, 8-Ethyl-2′-deoxyadenosine], in data set [1], the “Effect on primer extension pattern / enzyme pausing in (+) strand DNA synthesis” value was “enzyme pausing is obvious at positions n+1 and mainly n+2”. For the same molecule, the EC50 in data set [2] (setting [8]) was above 100 µM. The molecule further came in with a CC50 in data set [3] above 100 µM.
